For four compounds, inhibition results are on record in patent US10758542B2, “Substituted pyrazolo[l,5-a]pyrimidine compounds as Trk kinase inhibitors” (Array BioPharma Inc., priority 2009, dated 2020).

In the experiment the target is Human Jak2 kinase domain (Homo sapiens (Human), UniProt O60674). The experiment is described as follows: Jak2 inhibition assay (Omnia kinase). Type of experiment: biochemical. The following applies: read-out: Jak2 Enzyme (% inhibition at 1000 nM), Table 1; at 1000 nM test compound. The source says: The assays described in Examples C, D, E and F for the determination of JAK1, JAK2, JAK3 and Tyk2 kinase activity, respectively, utilized the Omnia® Kinase fluorescence peptide substrate-based technology (Invitrogen). The specific components of the assay mixture are described in Examples C, D and E. […] Two-μL aliquots of these were transferred to a fresh plate for a ten-fold intermediate dilution with assay buffer. […] Human Jak2 kinase domain comprising amino acids 808-1132 was purchased from Invitrogen Corporation, Carlsbad, Calif.
Chain of Human Jak2 kinase domain (O60674 808-1132): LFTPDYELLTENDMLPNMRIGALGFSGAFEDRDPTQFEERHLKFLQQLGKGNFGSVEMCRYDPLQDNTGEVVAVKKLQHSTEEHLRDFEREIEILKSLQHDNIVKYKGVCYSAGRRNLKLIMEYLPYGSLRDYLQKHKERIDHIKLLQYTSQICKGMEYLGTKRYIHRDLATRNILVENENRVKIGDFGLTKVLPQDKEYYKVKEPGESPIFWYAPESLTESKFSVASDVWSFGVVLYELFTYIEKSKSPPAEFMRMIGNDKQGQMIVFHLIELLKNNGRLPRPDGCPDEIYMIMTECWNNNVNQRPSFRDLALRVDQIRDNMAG
Turning to `O=C(N[C@@H]1CCC[C@H]1O)c1cnn2ccc(N3CCC[C@@H]3c3cncc(F)c3)nc12` [Example 133, 5-((R)-2-(5-fluoropyridin-3-yl)pyrrolidin-1-yl)-N-((1R,2R)-2-hydroxycyclopentyl)pyrazolo[1,5-a]pyrimidine-3-carboxamide], the inhibition at 1 µM came to 14.4%.

For `CC1(O)CCC(NC(=O)c2cnn3ccc(N4CCC[C@@H]4c4cc(F)ccc4F)nc23)CC1` (stereo partly drawn) [Example 51, 5-((R)-2-(2,5-difluorophenyl)pyrrolidin-1-yl)-N-(4-hydroxy-4-methylcyclohexyl)pyrazolo[1,5-a]pyrimidine-3-carboxamide], the inhibition at 1 µM was 82.5%.

In the case of `CCc1ncc(F)cc1[C@H]1CCCN1c1ccn2ncc(C(=O)N[C@H]3CC[C@H](O)C3)c2n1` [Example 200, 5-((R)-2-(2-ethyl-5-fluoropyridin-3-yl)pyrrolidin-1-yl)-N-((1S,3S)-3-hydroxycyclopentyl)pyrazolo [1,5-a]pyrimidine-3-carboxamide], the inhibition at 1 µM worked out at 12.5%.

In the case of `C[C@@H](NC(=O)c1cnn2ccc(N3CCC[C@@H]3c3cncc(F)c3)nc12)C(F)(F)F` [Example 129, 5-((R)-2-(5-fluoropyridin-3-yl)pyrrolidin-1-yl)-N-((R)-1,1,1-trifluoropropan-2-yl)pyrazolo[1,5-a]pyrimidine-3-carboxamide], the inhibition at 1 µM was found to be 25.2%.
